A short description of series [1]: Metabolic stability in mouse liver microsomes assessed as compound remaining after 30 mins. It counts as ADME, Microsome. Conditions: read-out: Stability.
A short description of series [2]: Metabolic stability in human liver microsomes assessed as compound remaining after 30 mins. It is filed as ADME, Microsome. The settings on record: read-out: Stability.
Series [3] in a line: Metabolic stability in rat liver microsomes assessed as compound remaining after 30 mins. It counts as ADME, Microsome. Conditions: read-out: Stability.
Series [4] has as its system Brain. Kind of series: Drug level in diet-induced obese C57BL/6J mouse brain at 30 mg/kg, po after 24 hrs. It is filed as ADME, organism-based. Details: dose 30 mg/kg, route oral. The settings on record: in vivo.
In series [5] the test system is Brain. Kind of series: Drug level in Sprague-Dawley rat brain at 10 mg/kg, po after 2 hrs. On the set-up: dose 10 mg/kg, route oral. It counts as ADME, organism-based. The settings on record: in vivo.
Series [6] is described as follows: Half life in Sprague-Dawley rat at 1 mg/kg, iv. It is filed as ADME, organism-based. Details: dose 1 mg/kg, route intravenous. Conditions: in vivo.
Series [7] in a line: Plasma concentration in Sprague-Dawley rat at 10 mg/kg, po after 2 hrs. It is filed as ADME, organism-based. Details: dose 10 mg/kg, route oral.
A short description of series [8]: AUC (0 to infinity) in diet-induced obese C57BL/6J mouse at 10 mg/kg, po. It is filed as ADME, organism-based. On the set-up: time infinity, dose 10 mg/kg, route oral. Conditions: plasma.
The nature of series [9]: Plasma clearance in Sprague-Dawley rat at 1 mg/kg, iv. It is filed as ADME, organism-based. On the set-up: dose 1 mg/kg, route intravenous.
The nature of series [10]: Plasma concentration in diet-induced obese C57BL/6J mouse at 30 mg/kg, po after 24 hrs. On the set-up: dose 30 mg/kg, route oral. It counts as ADME, organism-based.
Series [11] is described as follows: Drug level in Sprague-Dawley rat cerebrospinal fluid at 10 mg/kg, po after 2 hrs. It counts as ADME, organism-based. On the set-up: dose 10 mg/kg, route oral. Conditions: read-out: Drug uptake.
A short description of series [12]: Tmax in diet-induced obese C57BL/6J mouse at 30 mg/kg, po. It counts as ADME, organism-based. Details: dose 30 mg/kg, route oral. The settings on record: in vivo.
A short description of series [13]: Cmax in diet-induced obese C57BL/6J mouse at 30 mg/kg, po. It is filed as ADME, organism-based. On the set-up: dose 30 mg/kg, route oral. The settings on record: in vivo.
The subject of the next series is Rattus norvegicus. Kind of series: AUC (0 to infinity) in Sprague-Dawley rat at 3 mg/kg, po. It counts as ADME, organism-based, Plasma. Details: time infinity, dose 3 mg/kg, route oral. The settings on record: in vivo.
Series [14] is described as follows: Ratio of drug level in brain to plasma of Sprague-Dawley rat at 10 mg/kg, po after 2 hrs. It is filed as ADME, organism-based. Details: dose 10 mg/kg, route oral.
Series [15] can be described thus: Cmax in diet-induced obese C57BL/6J mouse at 10 mg/kg, po. It is filed as ADME, organism-based. Details: dose 10 mg/kg, route oral. The settings on record: in vivo.
Series [16] is described as follows: Volume of distribution at steady state in Sprague-Dawley rat at 1 mg/kg, iv. It is filed as ADME, organism-based. Details: dose 1 mg/kg, route intravenous. Conditions: in vivo, read-out: Vdss.
Series [17] in a line: Cmax in Sprague-Dawley rat at 3 mg/kg, po. It counts as ADME, organism-based. On the set-up: dose 3 mg/kg, route oral. The settings on record: in vivo.
The nature of series [18]: Oral bioavailability in Sprague-Dawley rat. It is filed as ADME, organism-based. The settings on record: in vivo.
Series [19] in a line: AUC (0 to infinity) in diet-induced obese C57BL/6J mouse at 30 mg/kg, po. It counts as ADME, organism-based. Details: time infinity, dose 30 mg/kg, route oral. The settings on record: plasma.
Series [20] in a line: Tmax in diet-induced obese C57BL/6J mouse at 10 mg/kg, po. Conditions: in vivo. It counts as ADME, organism-based. On the set-up: dose 10 mg/kg, route oral.
Series [21] is described as follows: Ratio of drug level in brain to plasma of diet-induced obese C57BL/6J mouse at 30 mg/kg, po after 24 hrs. It counts as ADME, organism-based. Details: dose 30 mg/kg, route oral.

Structures are written as SMILES.

For `CCO/N=C(/c1ccc(F)c(F)c1)c1ccc(CN2CCC3(CC2)OCc2cc(=O)n(C)cc23)cn1`, the remaining at 0.5 h in [1] is 74%; in [2], 77%; in series [3] it was 84%.

In the case of `Fc1cc2c(cn1)C1(CCN(Cc3ccc(Oc4ccc(F)c(F)c4)cc3)CC1)OC2`, the figures for the remaining at 0.5 h in [1], in series [2] and in series [3] were 3%, 17% and 4%, respectively.

With `O=C(C(c1ccc(F)c(F)c1)n1cccn1)N(CCF)CCCN1CCC2(CC1)OCc1cc(F)ncc12` (centres undefined), the remaining at 0.5 h in series [1] was 22%; in series [2], 12%; in [3], 31%.

By half-life is commonly meant the time in which the quantity being followed falls by half. The term AUC(0-inf) denotes total exposure, with the tail of the curve extrapolated. A higher AUC(0-inf) goes with more exposure. Usually clearance stands for a measure of how efficiently the substance is removed, as volume per time. Low values mean a low capacity for elimination, high ones a high capacity for elimination. For orientation: Tmax means the time from dosing to the highest level. In general, Cmax refers to the maximum level reached in the sampled fluid or tissue. The term AUC denotes concentration integrated over time. A lower AUC goes with low exposure. As usually defined, the Kp is tissue or fluid exposure divided by exposure in the circulation. In general, bioavailability refers to the share of a dose that reaches the circulation, judged against a reference dose that is usually intravenous. Higher therefore signals good availability. As to `CCO/N=C(/c1ccc(F)c(F)c1)c1ccc(CN2CCC3(CC2)OCc2cn(C)c(=O)cc23)cn1`, the Drug uptake with Brain [4] worked out at 0.052 nmol/g; in the series on Brain [5], 2.2 nmol/g. The compound further had a half-life in series [6] of 1.4 h. Moreover, the figures for the concentration at 2 h in series [7] and in series [11] were 4.5 µM and 0.13 µM, respectively. Besides, the AUC(0-inf) came out at 15.4 µM·h in series [8] and 90.7 µM·h in [19]. This compound came in with a clearance in [9] of 0.78 L/h/kg. Further, in series [10], the concentration at 24 h turned out to be 0.119 µM. Also, the Tmax in series [12] and in series [20] was 2 h throughout. In addition, the Cmax in series [13] was found to be 15.6 µM; in series [15], 4.27 µM; in series [17], 1.85 µM. In the series with Rattus norvegicus, this compound returned an AUC of 6.57 µM·h. Also, the figures for the remaining at 0.5 h in series [1], in series [2] and in series [3] were 57%, 68% and 71%, respectively. For the same compound, the Kp at 2 h in series [14] amounted to 0.49. In addition, in [16], the Vd came to 1.6 L/kg. The compound further registered a bioavailability in series [18] of 87%. For the same compound, the Kp at 24 h in series [21] was 0.43.

In the case of `CCO/N=C(/c1ccc(F)c(F)c1)c1ccc(CN2CCC3(CC2)OCc2cc(F)ncc23)cn1`, the remaining at 0.5 h amounted to 11% in series [1], 0% in series [2] and 2% in series [3].

Values taken from ChEMBL document CHEMBL1155989, “Discovery of novel diarylketoxime derivatives as selective and orally active melanin-concentrating hormone 1 receptor antagonists” (Bioorg Med Chem Lett, 2009).
